Laboratory results from patent US12377092B2, “Polycomb inhibitors and uses thereof” (FONDAZIONE ISTITUTO FIRC DI ONCOLOGIA MOLECOLARE (IFOM), priority 2017, dated 2025).
“Also recorded” adds a separate entry of the source.

Legend:
PRC2 = details: Konze et al., 2013; cited from earlier work
[1] = system: EndMT markers (Klf4, Sca1 and Fsp1); test: Real time (RT-PCR) analysis of EndMT markers, wild type and CCM3 knock out immortalized lung endothelial cells; type: cell-based, mouse; details: 72 hours
Protocol: (§1) Cells were seeded 6.3×10^4 cells/cm^2. The day after, PTC209 and UNC1999 were added to the confluent cells. Drugs were left for one or three days depending on the aim of the experiment. Final concentrations used for the two drugs were: 1 uM PTC209 and 5 uM UNC1999.
RNA extraction was performed both with (A) RNeasy kits (Promega) or (B) RNAeasy Mini Kit (QIAGEN). The latter allows also the extraction of proteins from the same sample. The RNA (500 ng) was reverse transcribed with random hexamers (High Capacity cDNA Archive kits; Applied Biosystems) in a final volume of 30 uL. Reaction were made with a thermocycler (Eppendorf) 10 min at 25° C. followed by 2 hours at 37° C. cDNA (5 ng) was amplified in triplicate in a reaction volume of 15 uL using TaqMan Gene Expression Assays (Applied Biosystems) in a ABI/Prism 7900 HT using a pre PCR step of 10 min at 95° C., followed by 40 cycles of 15 seconds at 95° C. and 60 seconds at 60° C. For each sample, the expression level was determined with the comparative threshold cycle (Ct) method, and normalized to the housekeeping genes encoding 18S, glyceraldehyde-3-phosphate dehydrogenase (GAPDH) and hypoxanthine-guanine phosphoribosyltransferase (hprt1). Ct or threshold cycle, represents the PCR cycle at which an increase in reporter fluorescence above a base-line signal can first be detect.
(§2) Wild type and CCM3 knock out cells were treated with either PTC209 or DMSO starting from the day after seeding, when cells were confluent. For this experiment cells were lysed for western blot and real-time analysis after 72 hours of treatment to check a long-term effect of PTC209.
(§3) To perform these experiments, immortalized lung endothelial cells both wild type and CCM3 knock out were treated, with the same experimental strategy used for PTC209, with UNC1999 for 72 hours and subsequently lysed for western blot and real time analysis. UNC1999 was used in its specific optimal concentration, which was different to PTC209. As control DMSO was given to the cells in a volume equal to the volume of DMSO in which UNC1999 was previously dissolved to rich the optimal concentration.
(§4) Briefly, wild type and CCM3 knock out cells were treated with either PTC209, UNC1999 or a combination of the two. PTC209 and UNC1999 were administrated at the same concentration used for the single treatment and DMSO was given as control in a volume equal to the sum of volumes of DMSO in which UNC1999 and PTC209 were previously dissolved.

[2] = system: EndMT markers (Klf4, Sca1 and Fsp1); test: Western blot analysis of EndMT markers, wild type and CCM3 knock out immortalized lung endothelial cells; type: cell-based, mouse; details: 72 hours
Protocol: as §1
(§5) Confluent cells were lysed with boiling modified Laemi sample Buffer (2% SDS, 20% glycerol, and 125 mM Tris-HCl, pH 6.8). Lysates were incubated for 10 minutes at 100° C. to allow proteins denaturation. Protein concentration was estimated using the BCA Protein Assay Kit (Pierce). Equal amount of proteins was loaded on a gel, separated by SDS-PAGE and transferred to a Protran Nitrocellulose Membrane (Whatman) 0.2 um pores. The membranes were blocked for 1 hour at RT in Tris Buffered Saline (TBS: NaCl 150 mM, Tris-HCl 10 mM pH 7.4) plus 0.1% Tween-20 containing 5% BSA or milk. The membranes were incubated with primary antibodies diluted in TBST (TBS plus 0.1% Tween-20) containing 5% of either BSA or milk overnight at 4° C. Next, membranes were rinsed three times with TBST for 5 minutes each and incubated for 45 minutes at RT with HRP-linked secondary antibodies diluted in TBST containing 5% BSA/milk. Membranes were rinsed three times with TBST for 5 minutes each and specific bindings were detected by enhanced chemiluminescence (ECL) system (Amersham Bioscience) using ChemiDoc XRS gel imaging system (Bio-Rad).
as §2, §3, §4

VE-cadherin = test: Western blot analysis of VE-cadherin, CCM3 knock out cells; type: cell-based, mouse; details: 72 hours
Protocol: as §1
as §5, with “The membranes were incubated with primary antibodies diluted in TBST (TBS plus 0.1% Tween-20) containing 5% of either BSA or milk overnight at 4° C. Next, membranes were rinsed three times with TBST for 5 minutes each and incubated for 45 minutes at RT with HRP-linked secondary antibodies diluted in TBST containing 5% BSA/milk.” left out
Experiment with combined PTC209 and UNC1999 treatments was repeated with the same experimental conditions described before and junction organisation was analysed through VE-cadherin staining and protein expression analysis (FIG. 19).

[3] = CCM3 knock out cells, 1 uM PTC209, 5 uM UNC1999, vs DMSO
[4] = wild type cells (physiological condition), CCM3 model

Compound: CCCc1cc(C)[nH]c(=O)c1CNC(=O)c1cc(-c2ccc(N3CCN(C(C)C)CC3)nc2)cc2c1cnn2C(C)C [UNC1999, N-[(6-methyl-2-oxo-4-propyl-1H-pyridin-3-yl)methyl]-1-propan-2-yl-6-[6-(4-propan-2-ylpiperazin-1-yl)pyridin-3-yl]indazole-4-carboxamide]
- Hystone-methyl transferase activity of PRC2 (PRC2): blocked
- Klf4, Sca1 and Fsp1 transcripts (real time analysis) [1, 3]: downregulation
- Klf4 transcript (real time analysis) [1, 4]: not influenced
- EndMT markers (Klf4, Sca1, Fsp1) protein expression (western blot) [2, 3]: downregulation; also recorded: inhibition of the upregulation
- downregulation of EndMT protein and gene expressions compared with PTC209 ([2]; CCM3 knock out cells, 5 uM UNC1999, western blot and real time): not as strong as the downregulation observed upon administration of PTC209
- Klf4 protein (western blot) [2, 4]: not influenced
- VE-cadherin protein expression level (western blot) (VE-cadherin): did not show any rescue
